One assay has as its target T1, STAT1 (Homo sapiens, UniProt P42224).
T1 sequence (P42224 1-750): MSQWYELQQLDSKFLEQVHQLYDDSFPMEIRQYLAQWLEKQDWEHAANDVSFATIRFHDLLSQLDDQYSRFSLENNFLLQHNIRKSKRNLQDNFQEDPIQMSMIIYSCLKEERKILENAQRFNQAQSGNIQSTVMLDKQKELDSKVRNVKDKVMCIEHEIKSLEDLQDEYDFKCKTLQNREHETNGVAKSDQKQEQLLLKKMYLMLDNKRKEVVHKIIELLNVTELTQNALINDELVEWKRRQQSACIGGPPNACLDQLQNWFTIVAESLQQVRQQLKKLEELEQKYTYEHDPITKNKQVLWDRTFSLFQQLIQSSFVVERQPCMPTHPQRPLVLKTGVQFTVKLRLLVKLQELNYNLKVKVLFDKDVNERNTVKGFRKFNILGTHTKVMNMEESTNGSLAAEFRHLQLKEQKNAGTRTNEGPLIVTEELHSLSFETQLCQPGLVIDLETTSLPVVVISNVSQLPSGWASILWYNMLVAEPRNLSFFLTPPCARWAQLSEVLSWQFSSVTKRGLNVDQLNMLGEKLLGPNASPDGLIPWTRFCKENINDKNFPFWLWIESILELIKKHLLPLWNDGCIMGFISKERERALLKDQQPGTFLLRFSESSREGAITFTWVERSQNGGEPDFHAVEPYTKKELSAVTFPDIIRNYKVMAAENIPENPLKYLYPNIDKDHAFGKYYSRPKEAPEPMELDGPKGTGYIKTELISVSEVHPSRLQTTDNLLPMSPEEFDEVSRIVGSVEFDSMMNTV
Kind of assay: Fluorescence polarization (FP) binding assay, STAT1. On the procedure:
(§1) Ki values were calculated from IC50 values using the published equation.[2] […]
(§2) Table S2: Activities of 12 against STAT5 proteins in FP assays.
(§3) Fluorescence polarization assays
(§4) Fluorescence polarization assays were essentially carried out as previously described.[1] These assays quantitate to which extent a test compound is able to interfere with binding between a STAT protein and a fluorescein-labeled phosphotyrosine-containing peptide, which is known to bind to the SH2 domain of the respective STAT protein. The following protein […]
concentrations were used: 100 nM for STAT1, 150 nM for STAT3, 30 nM for STAT4, 180 nM for STAT5a, 90 nM for STAT5b and 105 nM for STAT6. All peptides were used at a concentration of 10 nM. The following peptides were used: 5 -carboxyfluorescein -GpYDKPHVL for STAT1; 5-carboxyfluorescein -GpYLPQTV-NH2 for STAT3; 5-carboxyfluorescein-GpYLPQNID-OH for STAT4; 5-carboxyfluorescein-GpYLVLDKW for STAT5a/b, and 5-carboxyfluorescein-GpYVPWQDLI-OH for STAT6. As a buffer system, 10 mM Tris (pH 8.0), 50 mM NaCl, 1 mM EDTA, 1 mM DTT, 0.1 % Nonidet P-40 substitute, and 2 % DMSO in water was used. All compounds tested were incubated for 1 h with the protein. Subsequently, the fluorescein-labeled peptide was added and the fluorescence polarization was measured with an Infinite F500 plate reader (Tecan) after another hour. IC50 values were converted to Ki-values using the published equation.[2] […]
3:2 solution was added . The solution was degassed by applying ultrasonic under vacuum for one minute four times. 14 mg of Pd(PPh3)4 (12 µmol, 5 mol %) were added and the solution was refluxed overnight. After cooling down, the mixture was extracted with ethyl acetate, washed with brine and dried over Na2SO4. The crude product was purified by flash column […]
Method 2: Synthesis of dibenzylphosphate esters
The corresponding phenol (1 eq.) was dissolved in 10 ml/mmol MeCN or DMF and CCl4 (5 eq.), DIPEA (2 eq.) and DMAP (0.1 eq.) were added. After cooling down to 0°C, dibenzyl phosphite (1.5 eq.) was added dropwise and stirring was continued at the same temperature. […]

The next assay concerns the target STAT3 (Homo sapiens, UniProt P40763). Kind of assay: Fluorescence polarization (FP) binding assay, STAT3. The method, then:
Table S1: Activities of test compounds against STAT5a and STAT5b in FP assays . Experiments were carried out in triplicate (n = 3) unless stated otherwise. n/a: not applicable.
[a]data taken from the literature.[1]
as §1, §2, §3, §4
concentrations were used: 100 nM for STAT1, 150 nM for STAT3, 30 nM for STAT4, 180 nM for STAT5a, 90 nM for STAT5b and 105 nM for STAT6. All peptides were used at a concentration of 10 nM. The following peptides were used: 5 -carboxyfluorescein -GpYDKPHVL for STAT1; 5-carboxyfluorescein -GpYLPQTV-NH2 for STAT3; 5-carboxyfluorescein-GpYLPQNID-OH for STAT4; 5-carboxyfluorescein-GpYLVLDKW for STAT5a/b, and 5-carboxyfluorescein-GpYVPWQDLI-OH for STAT6. As a buffer system, 10 mM Tris (pH 8.0), 50 mM NaCl, 1 mM EDTA, 1 mM DTT, 0.1 % Nonidet P-40 substitute, and 2 % DMSO in water was used. All compounds tested were incubated for 1 h with the protein. Subsequently, the fluorescein-labeled peptide was added and the fluorescence polarization was measured with an Infinite F500 plate reader (Tecan) after another hour. IC50 values were converted to Ki-values using the published equation.[2]

The mark [1] stands for this setting: FP assay, Ki calculated from IC50 (n=3).

Structures are written as SMILES.

STAT3, sequence (P40763 whole entry, species assumed): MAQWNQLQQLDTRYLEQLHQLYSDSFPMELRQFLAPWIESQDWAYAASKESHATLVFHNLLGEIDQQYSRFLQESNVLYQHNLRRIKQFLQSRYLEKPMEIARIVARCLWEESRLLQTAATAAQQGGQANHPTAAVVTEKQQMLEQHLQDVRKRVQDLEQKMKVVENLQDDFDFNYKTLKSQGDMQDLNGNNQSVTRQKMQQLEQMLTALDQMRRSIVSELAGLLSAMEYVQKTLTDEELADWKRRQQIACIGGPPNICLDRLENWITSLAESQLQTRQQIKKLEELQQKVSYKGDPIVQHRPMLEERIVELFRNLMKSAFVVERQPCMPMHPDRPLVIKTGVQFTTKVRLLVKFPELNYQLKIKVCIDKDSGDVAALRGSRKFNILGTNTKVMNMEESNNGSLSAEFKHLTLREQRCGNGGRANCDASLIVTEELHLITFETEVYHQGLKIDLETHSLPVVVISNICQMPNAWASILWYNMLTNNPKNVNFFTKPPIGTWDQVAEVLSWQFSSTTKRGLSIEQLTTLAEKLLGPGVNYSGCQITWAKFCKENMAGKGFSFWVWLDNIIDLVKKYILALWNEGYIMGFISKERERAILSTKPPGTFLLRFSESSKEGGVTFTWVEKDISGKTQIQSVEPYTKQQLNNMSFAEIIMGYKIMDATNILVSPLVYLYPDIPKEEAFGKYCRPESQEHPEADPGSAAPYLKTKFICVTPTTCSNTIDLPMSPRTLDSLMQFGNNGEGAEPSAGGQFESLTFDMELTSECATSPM

Turning to `COc1cc(-c2cc(OP(=O)(O)O)cc(-c3cc(F)c(F)c(F)c3)c2)cc(OC)c1OC` [6 b], the inhibition at 200 µM on STAT1 (read-out: STAT1 inhibition at 200 μM) came out at 51 ± 5%; at STAT3 (read-out: STAT3 inhibition at 200 μM), 25 ± 3%.
Regarding `COc1cc(-c2cc(-c3cc(F)c(F)c(F)c3)cc(C(F)P(=O)(O)O)c2)cc(OC)c1OC` (stereo not drawn) [compound 12], the IC50 was found to be 90.6 ± 0.2 µM on STAT1 (FP assay) and 145 ± 6.8 µM at STAT3 (FP assay). The Ki was 44.6 ± 0.1 µM at STAT1 (setting [1]) and 71.7 ± 3.4 µM at STAT3 (setting [1]).

Source of the values: article PMC9303812, “Asymmetrically Substituted m‐Terphenyl Phosphates Inhibit the Transcription Factor STAT5a” (Chembiochem, 2021).
